Where two headings read alike, the source gives them in different places.
How the values were obtained:
[1] = system: NCI-H460 (lung large cell); assay: NCI-H460 cell growth inhibition (MTT); format: cell-based, human; conditions: Table 1, experimental; for IC50: Homo sapiens, NCI-H460, read-out: NCI-H460 pIC50 (converted)
Source text: (§1) Cell Growth Inhibition Assays. […] A broth microdilution method was used to determine IC50 values for growth inhibition by each bisphosphonate. […] NBPs were typically initially dissolved in H2O (0.01 M) while NNBPs were typically dissolved in DMSO (0.01 M).
(§2) GraphPad PRISM® version 4.0 software for windows (GraphPad Software Inc., San Diego, Calif., www.graphpad.com) was used to fit the data to a rectangular hyperbolic function: I=(ImaxC)/(IC50+C); […]

[2] = system: MCF-7 (breast adenocarcinoma); assay: MCF-7 cell growth inhibition (MTT), incl. FOH/GGOH rescue; format: cell-based, human; conditions: for IC50: Homo sapiens, MCF7
Source text: as §1
GraphPad PRISM® version 4.0 software for windows (GraphPad Software Inc., San Diego, Calif., www.graphpad.com) was used to fit the data to a rectangular hyperbolic function: I=(ImaxC)/(IC50+C);
For the “rescue” experiments, stock solutions of FOH or GGOH were prepared (in ethanol) and the requisite amounts added to the incubation media to produce a fixed 20 μM concentration.

human FPPS = target: T1, human FPPS (Homo sapiens, UniProt P14324); assay: human FPPS enzyme inhibition; format: biochemical; conditions: Table 1, experimental; for Ki: read-out: FPPS pKi (converted)
T1 construct: made in house
T1 sequence (P14324 1-419): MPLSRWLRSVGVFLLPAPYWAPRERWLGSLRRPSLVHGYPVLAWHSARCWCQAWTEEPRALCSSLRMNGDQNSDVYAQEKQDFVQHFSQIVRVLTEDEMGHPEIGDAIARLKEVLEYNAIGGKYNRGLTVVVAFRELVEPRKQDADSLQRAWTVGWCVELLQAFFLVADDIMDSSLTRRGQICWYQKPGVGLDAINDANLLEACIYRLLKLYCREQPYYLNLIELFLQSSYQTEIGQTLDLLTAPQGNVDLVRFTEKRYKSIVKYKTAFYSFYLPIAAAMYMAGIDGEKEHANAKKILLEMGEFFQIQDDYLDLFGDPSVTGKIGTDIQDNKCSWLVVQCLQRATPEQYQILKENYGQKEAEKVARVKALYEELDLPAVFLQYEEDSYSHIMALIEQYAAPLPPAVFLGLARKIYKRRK
Source text: (§3) To test our polypharmaceutical hypothesis, we expressed three enzymes: human FPPS, GGPPS and DPPS, and tested each for their inhibition by a series of bisphosphonates.

human DPPS = target: T2, human DPPS (Homo sapiens, UniProt Q5T2R2); assay: human DPPS enzyme inhibition; format: biochemical; conditions: Table 1, experimental; for Ki: read-out: DPPS_pKi (converted)
T2 construct: made in house
T2 sequence (Q5T2R2 1-415): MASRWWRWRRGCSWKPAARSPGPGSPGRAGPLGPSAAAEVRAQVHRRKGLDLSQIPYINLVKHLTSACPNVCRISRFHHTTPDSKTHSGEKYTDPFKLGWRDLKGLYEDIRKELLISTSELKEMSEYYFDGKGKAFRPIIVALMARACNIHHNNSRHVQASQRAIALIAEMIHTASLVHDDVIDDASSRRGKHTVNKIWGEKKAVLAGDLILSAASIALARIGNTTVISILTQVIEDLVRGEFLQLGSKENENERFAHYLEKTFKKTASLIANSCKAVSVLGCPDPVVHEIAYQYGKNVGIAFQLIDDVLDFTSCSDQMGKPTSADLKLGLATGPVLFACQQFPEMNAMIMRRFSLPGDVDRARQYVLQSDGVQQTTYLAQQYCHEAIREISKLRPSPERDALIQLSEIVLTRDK
T2 sequence (Q86YH6 1-399 partner): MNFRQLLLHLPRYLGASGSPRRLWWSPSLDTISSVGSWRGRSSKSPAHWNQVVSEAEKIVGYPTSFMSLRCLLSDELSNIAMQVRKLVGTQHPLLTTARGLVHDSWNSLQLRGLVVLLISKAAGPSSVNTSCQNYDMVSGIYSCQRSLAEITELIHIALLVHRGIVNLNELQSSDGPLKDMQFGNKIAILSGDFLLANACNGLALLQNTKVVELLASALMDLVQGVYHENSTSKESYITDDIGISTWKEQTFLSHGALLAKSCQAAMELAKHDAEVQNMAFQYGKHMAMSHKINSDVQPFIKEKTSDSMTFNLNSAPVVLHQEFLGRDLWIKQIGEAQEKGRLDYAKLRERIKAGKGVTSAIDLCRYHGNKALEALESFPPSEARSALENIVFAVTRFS
Source text: as §3

[3] = system: SF-268 (central nervous system glioblastoma); assay: SF-268 cell growth inhibition (MTT); format: cell-based, human; conditions: Table 1, experimental; for IC50: Homo sapiens, SF-268, read-out: SF-268 pIC50 (converted)
Source text: as §1, §2

Vγ2Vδ2 T cells = assay: γδ T cell activation (TNF-α release and proliferation); format: cell-based, human; conditions: Table 2, -log10(value, M); for EC50: Homo sapiens, T-cell, read-out: γδ T Cell Avg pED50 (converted)
Method: γδ T Cell Assays. Vγ2Vδ2 T cell TNF-α release and proliferation were performed basically as described previously^1. Briefly, to measure bioactivity for Vγ2Vδ2 T cells, the CD4^+ JN.24, CD4^+ HF.2, CD8αα^+ 12G12, or the CD4^−8^− HD.108 Vγ2Vδ2 T cell clones were stimulated with phosphoantigens in the presence of CP.EBV (an EBV transformed B cell line) for CD4^+ clones or Va-2 (a transformed fibroblast) for CD8αα^+ and CD4^−8^− clones. CP.EBV and Va-2 were fixed with 0.05% glutaraldehyde (EM grade, Sigma, Mo.) for use as APCs. […] Curve fitting minima for each experiment (e.g. TNF-α release from JN.24 cells) were determined using the Global Fitting technique, as implemented in Prism 4.0. Curve fitting maxima were optimized for each individual compound without the use of any constraints.

[4] = target: T3, human recombinant geranylgeranyl diphosphate synthase (hGGPPS) (Homo sapiens, UniProt O95749); assay: Human recombinant GGPPS inhibition (radiometric assay); format: biochemical; conditions: Table 1, experimental; for Ki: read-out: GGPPS pKi (converted)
T3 construct: made in house
T3 sequence (O95749 1-300): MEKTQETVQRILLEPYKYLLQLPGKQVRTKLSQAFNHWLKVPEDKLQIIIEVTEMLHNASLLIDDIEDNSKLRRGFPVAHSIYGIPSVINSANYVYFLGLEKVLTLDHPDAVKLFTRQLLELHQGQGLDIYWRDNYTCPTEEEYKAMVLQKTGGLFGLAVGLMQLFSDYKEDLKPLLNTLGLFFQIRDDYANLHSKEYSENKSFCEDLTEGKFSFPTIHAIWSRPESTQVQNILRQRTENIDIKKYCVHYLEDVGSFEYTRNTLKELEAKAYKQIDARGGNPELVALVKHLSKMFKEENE
Method: as §3
Human recombinant GGPPS inhibition. The purification of human recombinant geranylgeranyl diphosphate synthase (hGGPPS) followed the protocol reported previously^2. GGPPS inhibition by bisphosphonates was determined using the radiometric assay reported previously^2 with slight modification. […] IPP and incubated at 37° C. for 20 min. The reaction was terminated by the addition of 75 μL of HCl/MeOH. Following a second 20 min incubation at 37° C. to effectively hydrolyze the allylic pyrophosphates, the reaction mixtures were neutralized by the addition of 75 μL of 6 N NaOH and extracted with 500 μL of hexane. 200 μL of the organic phase was transferred to a scintillation vial for counting. The IC50 values were obtained by fitting the data to the dose-response curve in Origin 6.1 (OriginLab Corp., Northampton, Mass., www.OriginLab.com).

[5] = Table 1, experimental, read-out: MCF-7 pIC50 (converted)
[6] = Table 2, -log10(value, M), read-out: MCF-7 Cell pIC50 (converted)

IC50 [1]	IC50 [2, 5]	IC50 [2, 6]	Ki (human DPPS)	Ki [4]	IC50 [3]	Ki (human FPPS)	SMILES	NCI-H460 pIC50 (M) [1]	MCF-7 pIC50 (M) ([2]; Table 1, experimental)	MCF-7 Cell pIC50 (M) ([2]; Table 2, -log10(value, M))	FPPS pKi (M) (human FPPS)	DPPS pKi (human DPPS)	SF-268 pIC50 (M) [3]	γδ T Cell Avg pED50 (M) (Vγ2Vδ2 T cells)	GGPPS pKi (M) [4]	EC50 (Vγ2Vδ2 T cells)
							O=P([O-])(O)C(O)(C[n+]1ccccc1)P(=O)(O)O (stereo not shown) [BPH-278]	4.1 M	4.1 M	4.10 M	8.6 M	7.2	4.3 M	4.20 M		
							O=P([O-])(O)C(O)(C[n+]1cccc(-c2ccccc2)c1)P(=O)(O)O (stereo not shown) [BPH-300]	4.5 M	4.4 M		8.3 M	6.9	4.5 M			
							O=P([O-])(O)C(C[n+]1cccc(-c2ccccc2)c1)P(=O)(O)O (stereo not shown) [BPH-472]	4.3 M	4.4 M	4.46 M	8.6 M	7.1	4.3 M	4.07 M	6.6 M	
							Cc1ccc[n+](CC(P(=O)([O-])O)P(=O)(O)O)c1 (stereo not shown) [BPH-474]	4.2 M	4.1 M	4.42 M	8.4 M	6.9	4.1 M	3.85 M		
							O=P([O-])(O)C(C[n+]1cccc(Br)c1)P(=O)(O)O (stereo not shown) [BPH-483]	4.1 M	4.0 M	3.84 M	8.5 M	6.8	4.0 M	4.04 M		
2 µM	0.251 µM	0.219 µM	0.501 µM	0.0398 µM	1.26 µM		CCCCCCCCc1ccc[n+](CC(P(=O)([O-])O)P(=O)(O)O)c1 (stereo not shown) [BPH-637]									12.6 µM
0.158 µM	0.158 µM	0.17 µM	0.501 µM		0.2 µM	0.0158 µM	CCCCCCCCCCc1ccc[n+](CC(P(=O)([O-])O)P(=O)(O)O)c1 (stereo not shown) [BPH-638]									1.7 µM
							O=P([O-])(O)C(O)(C[n+]1cccc(-c2c[nH]cn2)c1)P(=O)(O)O (stereo not shown) [BPH-679]	4.3 M	4.4 M	4.65 M	8.2 M	6	4.5 M	3.34 M	5.0 M	
158 µM	251 µM	129 µM	0.1 µM	0.251 µM	200 µM	0.01 µM	CCCCC[S+](C)CC(P(=O)([O-])O)P(=O)(O)O (stereo not shown) [BPH-684]									126 µM
							CCCCCCCCCCCCCC[S+](C)CC(P(=O)([O-])O)P(=O)(O)O (stereo not shown) [BPH-694]	6.0 M	4.9 M	6.69 M	7.1 M	6.6	5.9 M	6.20 M		
0.631 µM	0.501 µM		0.0794 µM		0.631 µM	0.02 µM	CCCCCCCCc1cc[n+](CC(P(=O)([O-])O)P(=O)(O)O)cc1 (stereo not shown) [BPH-717]									
0.501 µM	2.51 µM	0.468 µM	0.00631 µM	0.0631 µM	1 µM		CCCCCCCOc1ccc[n+](CC(P(=O)([O-])O)P(=O)(O)O)c1 (stereo not shown) [BPH-722]									27.5 µM
							CCOCCOCCCc1ccc[n+](CC(P(=O)([O-])O)P(=O)(O)O)c1 (stereo not shown) [BPH-727]	3.5 M	3.5 M	3.62 M	8.2 M	6.8	3.7 M	3.77 M		
							CC(C)CCCC(C)CCOc1ccc[n+](CC(P(=O)([O-])O)P(=O)(O)O)c1 (stereo not shown) [BPH-728]	4.6 M	4.5 M	5.59 M	6.8 M	6.3	4.9 M	5.28 M		
